Assay type in all cases: cell-based
For test [1], the system named is Botrtyis cinerea (Bc). Kind of test: In vitro pathogen growth inhibition assay, Bc. To be noted: 48 h, ≥90% inhibition; 48 hours vs 2% DMSO control; read-out: Compound Concentration (ppm) sufficient for ≥90% inhibition of growth, Bc. Put shortly:
(§1)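 Spores in 17% V8 liquid medium, or 1.5 mm Rs mycelial plugs in ¼ PDB, incubated with compound; final concentration checked by OD600 for precipitation. OD readings at 24 and 48 h, blank-subtracted, plus visual ratings; value is concentration giving ≥90% growth inhibition.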

The subject of test [2] is Collectotrichum graminicola (Cg). Put plainly: In vitro pathogen growth inhibition assay, Cg. To be noted: 48 h, ≥90% inhibition; 48 hours vs 2% DMSO control; read-out: Compound Concentration (ppm) sufficient for ≥90% inhibition of growth, Cg. Put shortly:
as §1

For test [3], the system named is Diplodia maydis (Dm). Kind of test: In vitro pathogen growth inhibition assay, Dm. To be noted: Stenocarpella maydis, 48 h, ≥90% inhibition; 48 hours vs 2% DMSO control; read-out: Compound Concentration (ppm) sufficient for ≥90% inhibition of growth, Dm. The gist of the method:
(§2)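 Spores of Dm, Fv and Pc were diluted in 17% V8 liquid medium; Rs used 1.5 mm mycelial plugs in ¼ PDB. Compounds from 2.5 mg/ml DMSO stocks were combined with inoculum, growth was read by OD600 at 24 and 48 h with blank subtraction, and the reported value is the concentration giving ≥90% inhibition.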

In test [4] the test system is Fusarium moniliforme (Fm). Kind of test: In vitro pathogen growth inhibition assay, Fm. The following applies: Fusarium verticillioides; ≥90% inhibition; 48 hours vs 2% DMSO control; read-out: Compound Concentration (ppm) sufficient for ≥90% inhibition of growth, Fm. Put shortly:
as §1

Test [5] concerns Fusarium virguliforme (Fv). Put plainly: In vitro pathogen growth inhibition assay, Fv. The following applies: ≥90% inhibition, 48 hours vs 2% DMSO control, read-out: Compound Concentration (ppm) sufficient for ≥90% inhibition of growth, Fv. Put shortly: as §2
Test [6] relates to Phytophthora capsici (Pc). Kind of test: In vitro pathogen growth inhibition assay, Pc. The following applies: 48 h, ≥90% inhibition, 48 hours vs 2% DMSO control, read-out: Compound Concentration (ppm) sufficient for ≥90% inhibition of growth, Pc. Put shortly: as §2
Test [7] concerns Rhizoctonia solani (Rs). Put plainly: In vitro pathogen growth inhibition assay, Rs (mycelial plugs). The following applies: Rhizoctonia solani, 48 h, ≥90% inhibition; mycelial plugs; 48 hours vs 2% DMSO control; read-out: Compound Concentration (ppm) sufficient for ≥90% inhibition of growth, Rs. The gist of the method: as §2
Test [8] has as its system Septoria tritici (St). Put plainly: In vitro pathogen growth inhibition assay, St. The following applies: Zymoseptoria tritici, 48 h, ≥90% inhibition; 48 hours vs 2% DMSO control; read-out: Compound Concentration (ppm) sufficient for ≥90% inhibition of growth, St. Put shortly:
as §1

In brackets after ≈: the same amount, converted by molar mass.

For `COc1ccc(F)cc1[C@H](Cn1c(=O)n(CC(=O)NC(C)C)c(=O)c2c(C)c(-n3nccn3)sc21)OCCO` [Compound I-087], the IC90 in test [1] was 2 µg/mL (≈ 3.57 µM); in test [2], 2 µg/mL (≈ 3.57 µM); in test [3], above 50 µg/mL; in test [4], 0.08 µg/mL (≈ 0.143 µM); in test [5], 2 µg/mL (≈ 3.57 µM); in test [6] it was above 50 µg/mL. Further, the IC90 in test [7] is 2 µg/mL (≈ 3.57 µM); in test [8], above 50 µg/mL.

`COc1ccc(F)cc1[C@H](Cn1c(=O)n(CC(=O)N2CCCC2)c(=O)c2c(C)c(-n3nccn3)sc21)OCCO` [Compound I-088]: the IC90 in test [1] was 0.08 µg/mL (≈ 0.14 µM); in test [2] it was 2 µg/mL (≈ 3.49 µM); in test [3] it was 2 µg/mL (≈ 3.49 µM); in test [4], 0.08 µg/mL (≈ 0.14 µM); in test [5], 0.4 µg/mL (≈ 0.699 µM); in test [6] it was above 50 µg/mL. In addition, the IC90 in test [7] is 0.08 µg/mL (≈ 0.14 µM); in test [8], above 50 µg/mL.

With `COc1ccc(F)cc1[C@H](Cn1c(=O)n([C@@H](C)C(=O)NC2CCC2)c(=O)c2c(C)c(-n3nccn3)sc21)OCCO` [Compound I-091], the IC90 in test [1] was 0.4 µg/mL (≈ 0.682 µM); in test [2], at least 2 µg/mL; in test [3], 2 µg/mL (≈ 3.41 µM); in test [4], 0.08 µg/mL (≈ 0.136 µM); in test [5] it was 0.4 µg/mL (≈ 0.682 µM); in test [6], above 50 µg/mL. Moreover, the IC90 in test [7] is 2 µg/mL (≈ 3.41 µM); in test [8], above 50 µg/mL.

Turning to `COCCCO[C@@H](Cn1c(=O)n([C@@H](C)C(=O)NC(C)C)c(=O)c2c(C)c(-n3nccn3)sc21)c1cc(F)ccc1OC` [Compound I-093], the IC90 in test [1] was 0.4 µg/mL (≈ 0.664 µM); in test [2], 10 µg/mL (≈ 16.6 µM); in test [3], 2 µg/mL (≈ 3.32 µM); in test [4], 0.08 µg/mL (≈ 0.133 µM); in test [5] it was 10 µg/mL (≈ 16.6 µM); in test [6], above 50 µg/mL. The IC90 was 2 µg/mL (≈ 3.32 µM) in test [7] and above 50 µg/mL in test [8].

As to `COc1ccc(F)cc1[C@H](Cn1c(=O)n([C@H](C)C(=O)NC(C)C)c(=O)c2c(C)c(-n3nccn3)sc21)OCCO` [Compound I-097], the IC90 in test [1] was 0.4 µg/mL (≈ 0.696 µM); in test [2], 50 µg/mL (≈ 87 µM); in test [3] it was at least 2 µg/mL; in test [4], 0.08 µg/mL (≈ 0.139 µM); in test [5], 2 µg/mL (≈ 3.48 µM); in test [6], above 50 µg/mL. The values for the IC90 in test [7] and in test [8] were 2 µg/mL (≈ 3.48 µM) and above 50 µg/mL, respectively.

Regarding `COc1ccc(F)cc1[C@H](Cn1c(=O)n(C(C)(C)C(N)=O)c(=O)c2c(C)c(-n3nccn3)sc21)OC(C)C` [Compound I-113], the IC90 in test [1] is 2 µg/mL (≈ 3.67 µM); in test [2], 2 µg/mL (≈ 3.67 µM); in test [3] it was 2 µg/mL (≈ 3.67 µM); in test [4] it was 0.4 µg/mL (≈ 0.734 µM); in test [5], 0.4 µg/mL (≈ 0.734 µM); in test [6], above 50 µg/mL. In addition, the IC90 came to 0.08 µg/mL (≈ 0.147 µM) in test [7] and 50 µg/mL (≈ 91.8 µM) in test [8].

Consider `COc1ccc(F)cc1[C@H](Cn1c(=O)n(C(C)(C)C(=O)N2CC(O)C2)c(=O)c2c(C)c(-n3nccn3)sc21)OC1CCOCC1` [Compound I-114], for which the IC90 in test [1] was 2 µg/mL (≈ 3.11 µM); in test [2] it was 10 µg/mL (≈ 15.6 µM); in test [3], 10 µg/mL (≈ 15.6 µM); in test [4] it was 0.4 µg/mL (≈ 0.622 µM); in test [5], 2 µg/mL (≈ 3.11 µM); in test [6], above 50 µg/mL. The values for the IC90 in test [7] and in test [8] were 10 µg/mL (≈ 15.6 µM) and above 50 µg/mL, respectively.

For the molecule `COc1ccc(F)cc1[C@H](Cn1c(=O)n(C(C)(C)C(=O)NC(C)C)c(=O)c2c(C)c(-n3cccn3)sc21)OC1CCOCC1` [Compound I-115], the IC90 in test [1] is 2 µg/mL (≈ 3.19 µM); in test [2] it was at least 2 µg/mL; in test [3], at least 2 µg/mL; in test [4], 0.4 µg/mL (≈ 0.637 µM); in test [5], 2 µg/mL (≈ 3.19 µM); in test [6], above 50 µg/mL. Further, the values for the IC90 in test [7] and in test [8] were 10 µg/mL (≈ 15.9 µM) and at least 50 µg/mL, respectively.

With `COc1ccccc1[C@H](Cn1c(=O)n(C(C)(C)C(=O)N2CCCC2)c(=O)c2c(C)c(-n3cccn3)sc21)OC1CCOCC1` [Compound I-116], the IC90 in test [1] was 10 µg/mL (≈ 16.1 µM); in test [2], at least 2 µg/mL; in test [3], 10 µg/mL (≈ 16.1 µM); in test [4] it was 0.4 µg/mL (≈ 0.643 µM); in test [5], 10 µg/mL (≈ 16.1 µM); in test [6], above 50 µg/mL. Also, the figures for the IC90 in test [7] and in test [8] were 2 µg/mL (≈ 3.22 µM) and at least 50 µg/mL, respectively.

These data come from US10941157B2, “Pesticidal compositions and uses thereof” (Gilead Apollo, LLC, priority 2015, dated 2021).
